The results in this text go back to patent US7884107B2, “Substituted piperidines that increase P53 activity and the uses thereof” (Merck, priority 2006, dated 2011).

The target of the experiment is HDM2 protein (Homo sapiens, UniProt Q00987). The experiment in a line: fluorescence polarization screening assay (FP). It is filed as binding. Particulars: inhibitory concentration that achieves 50% of maximal activity. In general terms: Fluorescence polarisation rises when a labelled molecule tumbles more slowly, as on binding a larger partner.
Chain of HDM2 protein (Q00987 whole entry): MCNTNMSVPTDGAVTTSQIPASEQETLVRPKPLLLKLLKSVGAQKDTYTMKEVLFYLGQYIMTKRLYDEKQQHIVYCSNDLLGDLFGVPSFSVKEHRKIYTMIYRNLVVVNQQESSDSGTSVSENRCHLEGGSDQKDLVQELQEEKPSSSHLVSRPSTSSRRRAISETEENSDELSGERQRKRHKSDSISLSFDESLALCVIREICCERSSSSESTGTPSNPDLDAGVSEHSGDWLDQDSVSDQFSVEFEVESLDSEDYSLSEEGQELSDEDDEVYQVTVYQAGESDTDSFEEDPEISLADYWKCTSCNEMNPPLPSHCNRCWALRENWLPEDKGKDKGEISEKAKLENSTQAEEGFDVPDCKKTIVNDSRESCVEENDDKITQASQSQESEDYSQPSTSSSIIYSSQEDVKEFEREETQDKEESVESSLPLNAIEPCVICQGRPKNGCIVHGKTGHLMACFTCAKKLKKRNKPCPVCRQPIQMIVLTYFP

For orientation: IC50 means the concentration that gives 50% inhibition. Low values mean greater potency in that assay, high ones weaker potency in that assay. The compound `COc1ccccc1N1CCN(C(=O)C2(Oc3ccc(C(F)(F)F)cc3)CCCN(C(=O)c3cnccc3C(F)(F)F)C2)C(C(=O)NCCO)C1` (centres unmarked) [CR] gave an IC50 of 950 nM.

For `CC(=O)Nc1ccccc1N1CCN(C(=O)C2(Oc3ccc(Br)c(F)c3)CCCN(C(=O)c3cnccc3C(F)(F)F)C2)CC1` (centres unmarked) [AU], the IC50 stood at 510 nM.
